As usually defined, the IC50 is the concentration needed to halve the response being measured.

Bounds are passed on as bounds.

For the first assay, the target named is human M1 receptor (Homo sapiens (Human), UniProt P11229). The assay can be described thus: In vitro functional assay of muscarinic acetylcholine receptor activity, aequorin calcium flux, reversal of EC80 acetylcholine. It counts as cell-based.
human M1 receptor, sequence (P11229 whole entry): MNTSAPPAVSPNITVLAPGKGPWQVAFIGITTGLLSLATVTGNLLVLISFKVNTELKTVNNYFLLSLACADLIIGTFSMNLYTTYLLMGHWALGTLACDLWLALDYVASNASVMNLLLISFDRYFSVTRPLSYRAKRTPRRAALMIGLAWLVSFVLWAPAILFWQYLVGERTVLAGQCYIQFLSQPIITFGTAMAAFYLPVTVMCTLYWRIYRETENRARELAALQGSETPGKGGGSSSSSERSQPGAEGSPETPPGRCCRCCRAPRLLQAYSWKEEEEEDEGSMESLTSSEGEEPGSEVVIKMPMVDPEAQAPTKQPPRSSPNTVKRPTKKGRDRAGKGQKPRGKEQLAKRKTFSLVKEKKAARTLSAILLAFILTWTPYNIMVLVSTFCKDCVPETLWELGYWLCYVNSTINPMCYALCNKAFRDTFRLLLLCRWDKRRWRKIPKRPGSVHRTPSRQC
Conditions: not given
How it is done:
CHO-K1 cells stably expressing human M1 receptor with aequorin (Perkin Elmer) were grown in F12 media (Gibco) containing 10% FBS (ATCC), 0.4 mg/mL geneticin (Sigma-Aldrich) and 0.25 mg/mL Zeocin (Invitrogen). Cells were grown as per the manufacturer's protocol. For compound testing, cells were grown to confluency and detached gently with Accutase (Sigma-Aldrich) followed by centrifugation for 5 min at 150×g. Cells were then re-suspended in assay buffer (i.e. DMEM/F-12 HEPES without phenol red (Invitrogen) with 0.1% BSA (Sigma-Aldrich)) at a density of 5×10^6 cells/ml. Under sterile conditions, 5 μM coelenterazine (Invitrogen) was added to the cells, mixed, then incubated at room temperature protected from light, with gentle agitation, for 4 h.
Primary compound plates were prepared in 100% DMSO in opaque 96-well plates (VWR) and serially diluted in half log increments. Secondary compound plates were prepared at 3× concentration in assay buffer. Compounds were added to white, clear bottom tissue culture treated 96-well plates (Fisher Scientific). Coelenterazine-loaded cells were then added at 5×10^5 cells/well.
Compounds and cells were incubated at room temperature for 30 min in the dark. Acetylcholine at the EC80 concentration was added and calcium flux measured using a FlexStation 3 (Molecular Devices). Sigmoidal dose-response curves were generated by measuring luminescence over 40 sec and calculating the area under the curve. Dose response curves and IC50 values were generated using Prism (GraphPad). Compounds were tested at a final concentration range of 100 pM to 10 μM in 0.1% DMSO.
For orientation: A change in cytosolic calcium serves as a functional read-out for many receptors and channels.
Consider `N#Cc1ccc(N2C3CCC2CN(C(=O)CCS(=O)(=O)c2ccccc2C2CC2(F)F)C3)nc1` (racemic) [Example 5, 6-(3-(3-((2-(2,2-difluorocyclopropyl)phenyl)-sulfonyl)-propanoyl)-3,8-diazabicyclo[3.2.1]octan-8-yl)nicotinonitrile], for which the IC50 lay in the range of 10 to 100 nM.
As for `COc1cccc(S(=O)(=O)CCC(=O)N2CC3CCC(C2)N3c2ccc(C(F)(F)F)cn2)c1` [Example 16, 3-(3-methoxybenzenesulfonyl)-1-{8-[5-(trifluoromethyl)pyridin-2-yl]-3,8-diazabicyclo[3.2.1]octan-3-yl}propan-1-one], the IC50 was 100 to 1000 nM.
The same measure, in the same setting: in the case of `COc1c(F)cccc1S(=O)(=O)CCC(=O)N1CC2CCC(C1)N2c1ccc(C#N)cn1` [Example 14, 6-{3-[3-(3-fluoro-2-methoxybenzenesulfonyl)propanoyl]-3,8-diazabicyclo [3.2.1]octan-8-yl}pyridine-3-carbonitrile] it was 10 to 100 nM; in that of `N#Cc1ccc(N2C3CCC2CN(C(=O)CCS(=O)(=O)c2ccccc2C(F)(F)F)C3)nc1` [Example 29, 6-(3-(3-((2-(trifluoromethyl)phenyl)sulfonyl)propanoyl)-3,8-diazabicyclo[3.2.1]octan-8-yl)nicotinonitrile], 100 to 1000 nM.
With `N#Cc1ccc(N2C3CCC2CN(C(=O)CCS(=O)(=O)c2ncccc2C2CC2)C3)nc1` [Example 23, 6-(3-{3-[(3-cyclopropylpyridin-2-yl)sulfonyl]propanoyl}-3,8-diazabicyclo[3.2.1]octan-8-yl)pyridine-3-carbonitrile], the IC50 fell in the range of 100 to 1000 nM.
Still for that read-out and setting: then `CC(F)(F)c1ccccc1S(=O)(=O)CCC(=O)N1CC2CCC(C1)N2c1ccc(C#N)cn1` [Example 31, 6-(3-(3-((2-(1,1-difluoroethyl)phenyl)sulfonyl)propanoyl)-3,8-diazabicyclo [3.2.1]octan-8-yl)nicotinonitrile], with 100 to 1000 nM; and `COc1ccc(F)cc1S(=O)(=O)CCC(=O)N1CC2CCC(C1)N2c1ccc(C#N)cn1` [Example 13, 6-{3-[3-(5-fluoro-2-methoxybenzenesulfonyl)propanoyl]-3,8-diazabicyclo [3.2.1]octan-8-yl}pyridine-3-carbonitrile], with 10 to 100 nM; and `COc1cccc(S(=O)(=O)CCC(=O)N2CC3CCC(C2)N3c2ccc(F)c(C#N)c2)c1` [Example 19, 2-fluoro-5-{3-[3-(3-methoxybenzenesulfonyl)propanoyl]-3,8-diazabicyclo [3.2.1]octan-8-yl}benzonitrile], with 100 to 1000 nM.
The same measure, in the same setting: then `N#Cc1ccc(N2C3CCC2CN(C(=O)CCS(=O)(=O)c2ccccc2Br)C3)nc1` [Example 28, 6-(3-(3-((2-bromophenyl)sulfonyl)propanoyl)-3,8-diazabicyclo [3.2.1]octan-8-yl)nicotinonitrile], with 100 to 1000 nM; and `N#Cc1ccc(N2C3CCC2CN(C(=O)CCS(=O)(=O)c2cccc(Br)c2)C3)nc1` [Example 22, 6-{3-[3-(3-bromobenzenesulfonyl)propanoyl]-3,8-diazabicyclo [3.2.1]octan-8-yl}pyridine-3-carbonitrile], with 100 to 1000 nM; and `N#Cc1ccc(N2C3CCC2CN(C(=O)CCS(=O)(=O)c2ccccc2[C@@H]2CC2(F)F)C3)nc1` (single isomer, unassigned) [Example 36], with 100 to 1000 nM.
With `COc1cccc(S(=O)(=O)CCC(=O)N2CC3CCC(C2)N3c2ccc(C(F)(F)F)nn2)c1` [Example 17, 3-(3-methoxybenzenesulfonyl)-1-{8-[6-(trifluoromethyl)pyridazin-3-yl]-3,8-diazabicyclo[3.2.1]octan-3-yl}propan-1-one], the IC50 is 100 to 1000 nM.
Still for that read-out and setting: then `Cc1ccc(F)cc1S(=O)(=O)CCC(=O)N1CC2CCC(C1)N2c1ccc(C#N)cn1` [Example 32, 6-(3-(3-((5-fluoro-2-methylphenyl)sulfonyl)propanoyl)-3,8-diazabicyclo [3.2.1]octan-8-yl)nicotinonitrile], with 100 to 1000 nM; and `COc1cccc(S(=O)(=O)CCC(=O)N2CC3CCC(C2)N3c2ccc(C#N)c(F)c2)c1` [Example 20, 2-fluoro-4-{3-[3-(3-methoxybenzenesulfonyl)propanoyl]-3,8-diazabicyclo [3.2.1]octan-8-yl}benzonitrile], with 10 to 100 nM.
On the same count and under the same terms, then `Cc1cc(F)cc(S(=O)(=O)CCC(=O)N2CC3CCC(C2)N3c2ccc(C#N)cn2)c1` [Example 33, 6-(3-(3-((3-fluoro-5-methylphenyl)sulfonyl)propanoyl)-3,8-diazabicyclo [3.2.1]octan-8-yl)nicotinonitrile], with 100 to 1000 nM.
On the same count and under the same terms, in the case of `N#Cc1ccc(N2C3CCC2CN(C(=O)CCS(=O)(=O)c2cccnc2C2CC2)C3)nc1` [Example 27, 6-(3-{3-[(2-cyclopropylpyridin-3-yl)sulfonyl]propanoyl}-3,8-diazabicyclo[3.2.1]octan-8-yl)pyridine-3-carbonitrile] it was 10 to 100 nM; in that of `N#Cc1ccc(N2C3CCC2CN(C(=O)CCS(=O)(=O)c2ccccc2OC(F)(F)F)C3)nc1` [Example 30, 6-(3-(3-((2-(trifluoromethoxy)phenyl)sulfonyl)propanoyl)-3,8-diazabicyclo-[3.2.1]octan-8-yl)nicotinonitrile], 100 to 1000 nM.
As for `N#Cc1ccc(N2C3CCC2CN(C(=O)CCS(=O)(=O)c2ccccc2C(F)F)C3)nc1` [Example 26, 6-(3-{3-[2-(difluoromethyl)benzene-sulfonyl]propanoyl}-3,8-diazabicyclo-[3.2.1]octan-8-yl)pyridine-3-carbonitrile], the IC50 was 100 to 1000 nM.
Still for that read-out and setting: in the case of `COc1cc(S(=O)(=O)CCC(=O)N2CC3CCC(C2)N3c2ccc(C#N)cn2)ccn1` [Example 15, 6-(3-{3-[(2-methoxypyridin-4-yl)sulfonyl]propanoyl}-3,8-diazabicyclo[3.2.1]octan-8-yl)pyridine-3-carbonitrile] it was 10 to 100 nM; in that of `N#Cc1ccc(N2C3CCC2CN(C(=O)CCS(=O)(=O)c2ccnc(C4CC4)c2)C3)nc1` [Example 25, 6-(3-{3-[(2-cyclopropyl-pyridin-4-yl)sulfonyl]propanoyl}-3,8-diazabicyclo [3.2.1]octan-8-yl)pyridine-3-carbonitrile], 100 to 1000 nM; in that of `COc1cccc(S(=O)(=O)CCC(=O)N2CC3CCC(C2)N3c2ccc(C)nn2)c1` [Example 9, 3-(3-methoxybenzenesulfonyl)-1-[8-(6-methylpyridazin-3-yl)-3,8-diazabicyclo[3.2.1]octan-3-yl]propan-1-one], 100 to 1000 nM.
Still for that read-out and setting: in the case of `N#Cc1ccc(N2C3CCC2CN(C(=O)CCS(=O)(=O)c2cccc(OC4CC4)c2)C3)nc1` [Example 21, 6-{3-[3-(3-cyclopropoxybenzenesulfonyl)propanoyl]-3,8-diazabicyclo [3.2.1]octan-8-yl}pyridine-3-carbonitrile] it was 100 to 1000 nM.
On to `COc1cc(F)cc(S(=O)(=O)CCC(=O)N2CC3CCC(C2)N3c2ccc(C#N)cn2)c1` [Example 11, 6-{3-[3-(3-fluoro-5-methoxybenzenesulfonyl)propanoyl]-3,8-diazabicyclo [3.2.1]octan-8-yl}pyridine-3-carbonitrile], for which the IC50 was 10 to 100 nM.
The same measure, in the same setting: then `COc1ccccc1S(=O)(=O)CCC(=O)N1CC2CCC(C1)N2c1ccc(C#N)cn1` [Example 12, 6-{3-[3-(2-methoxybenzenesulfonyl)propanoyl]-3,8-diazabicyclo [3.2.1]octan-8-yl}pyridine-3-carbonitrile], with 10 to 100 nM; and `N#Cc1ccc(N2C3CCC2CN(C(=O)CCS(=O)(=O)c2cccc(F)c2)C3)nc1` [Example 7, 6-{3-[3-(3-fluorobenzenesulfonyl)propanoyl]-3,8-diazabicyclo[3.2.1]octan-8-yl}pyridine-3-carbonitrile], with 10 to 100 nM.

Staying with this assay, now noted: CHO-K1 cells expressing human M1 receptor with aequorin; acetylcholine at EC80; read-out: M1 IC50.
`N#Cc1ccc(N2C3CCC2CN(C(=O)CCCS(=O)(=O)c2ccccc2I)C3)nc1` [Example 1, 6-(3-(4-((2-iodophenyl)sulfonyl)butanoyl)-3,8-diazabicyclo[3.2.1]octan-8-yl)nicotinonitrile]: the IC50 is less than 10 nM.
`COc1cccc(S(=O)(=O)CCC(=O)N2CC3CCC(C2)N3c2ccc(C)cn2)c1` [Example 18, 3-(3-methoxybenzenesulfonyl)-1-[8-(5-methylpyridin-2-yl)-3,8-diazabicyclo[3.2.1]octan-3-yl]propan-1-one]: the IC50 fell in the range of 1000 to 10000 nM.
On the same count and under the same terms, in the case of `CC(C)(O)c1cc(S(=O)(=O)CCC(=O)N2CC3CCC(C2)N3c2ccc(C#N)cn2)ccc1F` [Example 6, 6-(3-(3-((4-fluoro-3-(2-hydroxypropan-2-yl)phenyl)-sulfonyl)propanoyl)-3,8-diazabicyclo[3.2.1]octan-8-yl)nicotinonitrile] it was 1000 to 10000 nM; in that of `COc1cccc(S(=O)(=O)CCC(=O)N2CC3CCC(C2)N3c2ccc(C)nc2)c1` [Example 10, 3-(3-methoxybenzenesulfonyl)-1-[8-(6-methylpyridin-3-yl)-3,8-diazabicyclo[3.2.1]octan-3-yl]propan-1-one], 1000 to 10000 nM; in that of `N#Cc1ccc(N2C3CCC2CN(C(=O)CCS(=O)(=O)c2cccc(F)c2C2CC2)C3)nc1` [Example 4, 6-(3-(3-((2-cyclopropyl-3-fluorophenyl)sulfonyl)-propanoyl)-3,8-diazabicyclo[3.2.1]octan-8-yl)nicotinonitrile], less than 10 nM.

Source of the values: US11752149B2, “Muscarinic acetylcholine M1 receptor antagonists” (Pipeline Therapeutics, Inc., priority 2019, dated 2023).
